Laboratory results from patent US10005767B2, “Compositions and methods for inhibition of the JAK pathway” (Rigel Pharmaceuticals, Inc., priority 2009, dated 2018).
Structures can show the parent of a compound that is named as a salt.

Test system: human primary T-cells, IL-2 stimulated proliferation (JAK-1 and JAK-3 dependent; reported as JAK3 activity)
Assay: Human primary T-cell proliferation stimulated by IL-2 (Example 3)
Format: cell-based
Settings: Homo sapiens, T-cell, tested under conditions described in Example 3 (IL-2 stimulated human primary T-cell proliferation); read-out: ability to inhibit JAK3 activity, IC50 range (Table V)
In short: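 Peripheral-blood human T-cells pre-activated via TCR/CD28, IL-2-starved overnight, then cultured 72 h at 37 °C with compound in Yssel's medium containing IL-2 (80 U/mL in cell suspension). Proliferation read as viable-cell ATP by CellTiter-Glo luminescence; reduction versus control taken as JAK pathway inhibition.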

Row | Compound | IC50 [nM]
1 | Cc1cnc(Nc2ccc(C(C)C)cc2)nc1Nc1ccc2oc(=O)[nH]c2c1 [Compound I-419, 5-(2-(4-isopropylphenylamino)-5-methylpyrimidin-4-ylamino)benzo[d]oxazol-2(3H)-one] | < 500
2 | Cc1cnc(Nc2ccc(C(C)(C)C)cc2)nc1Nc1ccc2oc(=O)[nH]c2c1 [Compound I-420, 5-(2-(4-tert-butylphenylamino)-5-methylpyrimidin-4-ylamino)benzo[d]oxazol-2(3H)-one] | < 500
3 | Cc1ccc(Nc2ncc(C)c(Nc3ccc4oc(=O)[nH]c4c3)n2)cc1 [Compound I-421, 5-(2-(p-toluidino)-5-methylpyrimidin-4-ylamino)benzo[d]oxazol-2(3H)-one] | < 500
4 | COc1ccc(Nc2ncc(C)c(Nc3ccc4oc(=O)[nH]c4c3)n2)cc1COC(C)C [Compound I-422, 5-(2-(3-(isopropoxymethyl)-4-methoxyphenylamino)-5-methylpyrimidin-4-ylamino)benzo[d]oxazol-2(3H)-one] | < 500
5 | COc1cc(Nc2ncc(C)c(Nc3ccc4oc(=O)[nH]c4c3)n2)cc(C(C)O)c1 (stereo not drawn) [Compound I-423, 5-(2-(3-(1-hydroxyethyl)-5-methoxyphenylamino)-5-methylpyrimidin-4-ylamino)benzo[d]oxazol-2(3H)-one] | < 500
6 | Cc1cnc(Nc2ccc(O)c(Cl)c2)nc1Nc1ccc2oc(=O)[nH]c2c1 [Compound I-424, 5-[2-(3-Chloro-4-hydroxy-phenylamino)-5-methyl-pyrimidin-4-ylamino]-3H-benzooxazol-2-one] | < 500
7 | Cc1cnc(Nc2ccc(O)cc2)nc1Nc1ccc2oc(=O)[nH]c2c1 [Compound I-425, 5-[2-(4-Hydroxy-phenylamino)-5-methyl-pyrimidin-4-ylamino]-3H-benzooxazol-2-one] | < 500
8 | Cc1cnc(Nc2ccc(OCCN(C)C)cc2)nc1Nc1ccc2oc(=O)[nH]c2c1 [Compound I-426, 5-{2-[4-(2-Dimethylamino-ethoxy)-phenylamino]-5-methyl-pyrimidin-4-ylamino}-3H-benzooxazol-2-one] | < 500
9 | COc1cc(Nc2ncc(C)c(Nc3cc(C)c4oc(=O)[nH]c4c3)n2)cc(C(F)(F)F)c1 [Compound I-427, 5-(2-(3-methoxy-5-(trifluoromethyl)phenylamino)-5-methylpyrimidin-4-ylamino)-7-methylbenzo[d]oxazol-2(3H)-one] | > 10000
10 | COc1cc(C)cc(Nc2ncc(C)c(Nc3cc(C)c4oc(=O)[nH]c4c3)n2)c1 [Compound I-428, 5-(2-(3-methoxy-5-methylphenylamino)-5-methylpyrimidin-4-ylamino)-7-methylbenzo[d]oxazol-2(3H)-one] | < 500
11 | COc1ccc(Nc2ncc(C)c(Nc3cc(C)c4oc(=O)[nH]c4c3)n2)cc1C [Compound I-429, 5-(2-(4-methoxy-3-methylphenylamino)-5-methylpyrimidin-4-ylamino)-7-methylbenzo[d]oxazol-2(3H)-one] | < 500
12 | COc1cc(C)cc(Nc2ncc(C)c(Nc3cc(F)c4oc(=O)[nH]c4c3)n2)c1 [Compound I-430, 7-fluoro-5-(2-(3-methoxy-5-methylphenylamino)-5-methylpyrimidin-4-ylamino)benzo[d]oxazol-2(3H)-one] | < 500
13 | COc1ccc(Nc2ncc(C)c(Nc3cc(F)c4oc(=O)[nH]c4c3)n2)cc1C [Compound I-431, 7-fluoro-5-(2-(4-methoxy-3-methylphenylamino)-5-methylpyrimidin-4-ylamino)benzo[d]oxazol-2(3H)-one] | < 500
14 | COc1cc(Nc2ncc(C)c(Nc3ccc4oc(=O)[nH]c4c3)n2)cc(C)c1F [Compound I-432, 5-(2-(4-fluoro-3-methoxy-5-methylphenylamino)-5-methylpyrimidin-4-ylamino)benzo[d]oxazol-2(3H)-one] | < 500
15 | Cc1cnc(Nc2ccc(OC(F)F)c(CF)c2)nc1Nc1ccc2oc(=O)[nH]c2c1 [Compound I-433, 5-(2-(4-(difluoromethoxy)-3-(fluoromethyl)phenylamino)-5-methylpyrimidin-4-ylamino)benzo[d]oxazol-2(3H)-one formate salt] | < 500
16 | Cc1ccc(Nc2ncc(C)c(Nc3ccc4oc(=O)[nH]c4c3)n2)cc1C(F)F [Compound I-438, 5-(2-(3-(difluoromethyl)-4-methylphenylamino)-5-methylpyrimidin-4-ylamino)benzo[d]oxazol-2(3H)-one] | < 500
17 | Cc1ccc(Nc2ncc(C)c(Nc3ccc4oc(=O)[nH]c4c3)n2)cc1CF [Compound I-439, 5-(2-(3-(fluoromethyl)-4-methylphenylamino)-5-methylpyrimidin-4-ylamino)benzo[d]oxazol-2(3H)-one] | < 500
18 | Cc1cnc(Nc2ccc(OC(F)F)c(C(F)F)c2)nc1Nc1ccc2oc(=O)[nH]c2c1 [Compound I-442, 5-(2-(4-(difluoromethoxy)-3-(difluoromethyl)phenylamino)-5-methylpyrimidin-4-ylamino)benzo[d]oxazol-2(3H)-one formate salt] | < 500
19 | Cc1ccc(Nc2ncc(C)c(Nc3ccc4oc(=O)[nH]c4c3)n2)cc1-c1ccncc1 [Compound I-443, 5-(5-methyl-2-(4-methyl-3-(pyridin-4-yl)phenylamino)pyrimidin-4-ylamino)benzo[d]oxazol-2(3H)-one] | < 500
20 | Cc1ccc(Nc2ncc(C)c(Nc3ccc4oc(=O)[nH]c4c3)n2)cc1-c1cccnc1 [Compound I-444, 5-(5-methyl-2-(4-methyl-3-(pyridin-3-yl)phenylamino)pyrimidin-4-ylamino)benzo[d]oxazol-2(3H)-one] | < 500
21 | CC(=O)c1cc(Nc2ncc(C)c(Nc3ccc4oc(=O)[nH]c4c3)n2)cc(C(F)(F)F)c1 [Compound I-445, 5-(2-(3-acetyl-5-(trifluoromethyl)phenylamino)-5-methylpyrimidin-4-ylamino)benzo[d]oxazol-2(3H)-one] | < 500
22 | Cc1cnc(Nc2cc(C(C)O)cc(C(F)(F)F)c2)nc1Nc1ccc2oc(=O)[nH]c2c1 (stereo not drawn) [Compound I-446, 5-(2-(3-(1-hydroxyethyl)-5-(trifluoromethyl)phenylamino)-5-methylpyrimidin-4-ylamino)benzo[d]oxazol-2(3H)-one] | < 500
23 | CCN(CC)CCOc1ccc(Nc2ncc(C)c(Nc3ccc4oc(=O)[nH]c4c3)n2)cc1 [Compound I-449, 5-{2-[4-(2-Diethylamino-ethoxy)-phenylamino]-5-methyl-pyrimidin-4-ylamino}-3H-benzooxazol-2-one] | < 500
24 | COc1cc(Nc2ncc(C)c(Nc3ccc4oc(=O)[nH]c4c3)n2)cc(C)c1OC [Compound I-452, 5-(2-(3,4-dimethoxy-5-methylphenylamino)-5-methylpyrimidin-4-ylamino)benzo[d]oxazol-2(3H)-one] | < 500
25 | COc1cc(Nc2ncc(C)c(Nc3cc(C)c4oc(=O)[nH]c4c3)n2)cc(C)c1OC [Compound I-453, 5-(2-(3,4-dimethoxy-5-methylphenylamino)-5-methylpyrimidin-4-ylamino)-7-methylbenzo[d]oxazol-2(3H)-one] | < 500

Same assay, conditions: tested under conditions described in Example 3 (IL-2 stimulated human primary T-cell proliferation); read-out: ability to inhibit JAK3 activity, IC50 range (Table V)

Row | Compound | IC50 [nM]
26 | Cc1cnc(Nc2cc(F)c(C(F)(F)F)c(F)c2)nc1Nc1ccc2oc(=O)[nH]c2c1 [Compound I-415, N2-(3,5-difluoro-4-trifluoromethyl)phenyl-5-methyl-N4-(2-oxo-2,3-dihydro-1,3-benzoxazol-5-yl)-2,4-pyrimidinediamine] | < 500
27 | Cc1cnc(Nc2cc(F)cc(OC(C)(C)C#N)c2)nc1Nc1ccc2oc(=O)[nH]c2c1 [Compound I-416, N2-[3-(1-cyano-1-methyl)ethoxy-5-fluoro]phenyl-5-methyl-N4-(2-oxo-2,3-dihydro-1,3-benzoxazol-5-yl)-2,4-pyrimidinediamine] | < 500
28 | Cc1cnc(Nc2ccc(F)c(OC(C)(C)C#N)c2)nc1Nc1ccc2oc(=O)[nH]c2c1 [Compound I-417, N2-[3-(1-cyano-1-methyl)ethoxy-4-fluoro]phenyl-5-methyl-N4-(2-oxo-2,3-dihydro-1,3-benzoxazol-5-yl)-2,4-pyrimidinediamine] | < 500
29 | Cc1cnc(Nc2ccc(Cl)c(OC(F)F)c2)nc1Nc1ccc2oc(=O)[nH]c2c1 [Compound I-418, N2-(4-chloro-3-difluoromethoxy)phenyl-5-methyl-N4-(2-oxo-2,3-dihydro-1,3-benzoxazol-5-yl)-2,4-pyrimidinediamine] | < 500
30 | Cc1cnc(Nc2ccc(C#N)c(OC(F)F)c2)nc1Nc1ccc2oc(=O)[nH]c2c1 [Compound I-434, N2-(4-cyano-3-difluoromethoxy)phenyl-5-methyl-N4-(2-oxo-2,3-dihydro-1,3-benzoxazol-5-yl)-2,4-pyrimidinediamine] | < 500
31 | Cc1cnc(Nc2ccc(F)c(OC(F)F)c2)nc1Nc1ccc2oc(=O)[nH]c2c1 [Compound I-435, N2-(3-difluoromethoxy-4-fluoro)phenyl-5-methyl-N4-(2-oxo-2,3-dihydro-1,3-benzoxazol-5-yl)-2,4-pyrimidinediamine] | < 500
32 | Cc1cnc(Nc2cc(C)c(F)c(C)c2)nc1Nc1ccc2oc(=O)n(COP(=O)(OC(C)(C)C)OC(C)(C)C)c2c1 [Compound I-450, N4-{3-[bis(1,1-dimethylethoxy)]phosphinyloxymethyl-2-oxo-2,3-dihydro-1,3-benzoxazol-5-yl}-N2-(3,5-dimethyl-4-fluoro)phenyl-5-methyl-2,4-pyrimidinediamine] | > 10000
33 | Cc1cnc(Nc2cc(C)c(F)c(C)c2)nc1Nc1ccc2oc(=O)n(COP(=O)(O)O)c2c1 [Compound I-451, N2-(3,5-dimethyl-4-fluoro)phenyl-5-methyl-N4-[3-(phosphonooxy)methyl-2-oxo-2,3-dihydro-1,3-benzoxazol-5-yl]-2,4-pyrimidinediamine bis-sodium salt] | 500 to 5000
